Experimental data published in article PMC3351437, “Skin-Targeted Inhibition of PPAR β/δ by Selective Antagonists to Treat PPAR β/δ – Mediated Psoriasis-Like Skin Disease In Vivo” (PLoS ONE, 2012).
Like-named read-outs stand apart in the source and are kept apart here.

Experiments:
[1] = Blood concentration after topical application (UPLC/mass spectrometry); assay type: in vivo, C57Bl/6j wild type mice; details: for total amount of detectable compound in blood as fraction of total drug applied: 1 h after topical application, blood volume assumed 7% of body mass
Procedure: (§1) 50 µL of cardiac blood were diluted 1∶2 (v∶v) with milipore water and snap frozen immediately. Previously treated skin segments were shaved, tape-stripped three times to remove residual hair and non-absorbed ointment on the surface, and then snap frozen in liquid nitrogen. Frozen skin was ground and ten times the volume of methanol-water (1∶1 v/v) was added per weight unit of skin. A minimum of 20 mg of skin was used per each sample. Samples were homogenized with a Covaris S2 acoustic homogeniser. For both cardiac blood and skin homogenate, proteins were precipitated by adding 3 volumes of acetonitrile containing a suitable internal standard. All samples were then centrifuged for 10 minutes at 2800 rpm before transfer of 200 µL of supernatant into a 96 well plate and 100 µL of milliQ water added. Calibration curves were constructed in either untreated homogenised skin or blood to cover at least 3 orders of magnitude (1–2000 ng/mL) and extracted as for aforementioned study samples. All cardiac blood, skin samples and standards were then investigated by mass spectrometry as described below. For calculation of total blood volume, mice were weighed and an average blood volume of 7% (mL/g) of body mass was assumed.
(§2) An Acquity ultra high performance liquid chromatography (UPLC) system; consisting of an autosampler, the Acquity UPLC Sample Manager with Sample Organiser, a pump, the Acquity UPLC Binary Solvent Manager, an in-built column oven, a UV detector, the Acquity UPLC Photo Diode Array) and a Quattro Premier XE triple quadrupole mass spectrometer (Waters, UK). […] The analytical column was an Acquity UPLC BEH C18, 2.1 mm i.d. ×50 mm length, 1.7 µm particle size (Waters, UK). No guard column was used, but a vanguard […].
(§3) Mobile phase A was Milli-Q reverse phase de-ionised water with formic acid (0.1%, v∶v), mobile phase B was acetonitrile with formic acid (0.1%, v∶v). Mobile phase was delivered at a flow rate of 0.6 mL/min. […] Finally mobile phase B was returned to 5% over 0.1 min and maintained at this composition for 0.4 min. Total run time 3 min.
(§4) The entire flow was introduced into the Mass spectrometer. The autosampler was set at 4°C and an injection voloume of 5 µL was used (partial loop). […] An in-house proprietary internal standard was used for determination of all 3 analytes.

[2] = Drug quantification in skin and blood of diseased mice (mass spectrometry); assay type: in vivo, PPAR β/δ transgenic mice; details: for concentration at 12 h: 12 h after the last cream application
Procedure: as §1, §2, §3, §4

[3] = system: HB-EGF, IL1b, LCE3e/LCE3f expression; assay: Real-time PCR of PPAR β/δ target genes in skin; assay type: in vivo, PPAR β/δ transgenic mice
Text: Skin was processed by removing subcutaneous tissue and small skin pieces were snap frozen in liquid nitrogen. Frozen skin was ground and RNA was extracted using the NucleoSpin RNA/Protein kit from Macherey-Nagel. cDNA synthesis was done with the SuperScript Vilo cDNA synthesis kit from Invitrogen. Gene expression levels were quantified using TaqMan-based real-time PCR using Assays-on-Demand kits obtained from Applied biosystems according to the manufacturer's instruction and quantification performed as calibrated to the internal housekeeping gene GAPDH (LCE3f: Mm02605425, Il1β: Mm01336189, Hb-EGF: Mm00439305).

[4] = system: PPAR β/δ mediated skin disease; assay: Control of skin disease induced by i.p. GW501516, ointment at different frequencies; assay type: in vivo, PPAR β/δ transgenic mice
Procedure: All animal studies reported here were subject to approval of Tayside Research Ethics Committee, and are conducted in accordance with UK Home Office procedures (project licence 60/3800, licence holder JF). Breeding of PPAR β/δ transgenic mice and genotyping were all carried out as described previously. […]
(§5) Mice were sacrificed, skin samples obtained and processed for H&E based histology as described. All samples were photographed at 200× magnification. Epidermal thickness was measured for all slides by a blinded observer at perpendicular angle to the basement membrane. […] For each sample, two measurements were taken in two separately photographed non-adjacent sections of the H&E stained skin sample.

PPARβ/δ [5] = details: cited from earlier work; for IC50: in vitro data taken from literature, ref references listed in Figure 1, read-out: IC50 PPARβ/δ binding
PPARβ/δ [6] = details: in vitro data taken from literature; ref references listed in Figure 1; read-out: EC50 PPARβ/δ competitive antagonism; cited from earlier work
other PPAR isoforms = system: other PPAR isoforms; parameters: method as in references listed in Figure 1 / ref 13; details: in vitro data taken from literature, ref references listed in Figure 1 / ref 13, cited from earlier work
psoriasis = system: psoriasis; parameters: method as in PMID 12673084; details: cited from earlier work
PPAR β/δ = system: PPAR β/δ; parameters: method as in PMID 17488971; details: cited from earlier work
[7] = Drug solubility in ointment, absence of crystals by polarised microscopy; assay type: physicochemical; details: Hydromol ointment with DMSO
Procedure: These included drug incorporation into liquified vehicle at 70°C, pre-disolvement in DMSO, ethanol, isopropanol, polyethyene glycol 300, and olive oil followed by vehicle incorporation, as well as a variety of vehicles (liquid paraffin, Hydromol ointment, aqueous ointment BP). Drug solubility was assessed using a previously reported method relying on the absence of crystals detectable by polarised microscopy.
All PPAR β/δ antagonists were custom-synthesized by AF-Chempharm (UK). […] Compound 3 h was pre-dissolved in DMSO, left at room temperature for 20 min at low agitation and then incorporated into Hydromol ointment using a melamin bowl to yield final concentrations of 0.5% (w/w) 3 h, and 5% (w/w) of DMSO, respectively. […] Vehicle-only contro ointment was prepared exactly as GSK0660 ointment while omitting the chemical itself. Ointments were stored in airtight containers at 4°C in the dark and made fresh once a week.

[8] = Storage stability at room temperature and light exposure; assay type: physicochemical
[9] = Skin concentration after topical application (UPLC/mass spectrometry); assay type: in vivo, C57Bl/6j wild type mice; details: for local concentration in skin at steady state: twice daily for seven days, even for the lower dose used (0.2%), 1 h after last application
Procedure: as §1, §2
Mobile phase A was Milli-Q reverse phase de-ionised water with formic acid (0.1%, v∶v), mobile phase B was acetonitrile with formic acid (0.1%, v∶v). Mobile phase was delivered at a flow rate of 0.6 mL/min. […] Finally mobile phase B was returned to 5% over 0.1 min and maintained at this composition for 0.4 min. Total run time 3 min. […]

shaved dorsal skin = assay: Skin histology after one week of topical application (inflammatory changes); assay type: in vivo, C57Bl/6j wild type mice; details: for number of dermal nuclei per high power field: vs vehicle-only treated skin; for epidermal hyperplasia induced by antagonist: twice daily for one week
Procedure: We next determined the local concentrations in skin at steady state after prolonged topical application. […] Skin samples were then extracted and analysed by mass spectrometry for concentration determination as well as processed for histology. […] 90 min (cf. fig. 2b). […] Infrequently, we noted apoptotic epidermal keratinocytes (inset, middle row of H&E sections). Since these cells were also found in transgenic PPAR β/δ mice treated with the agonist only (figure S1), the exact underlying cause is unclear but unlikely to underlie the treatment effect of the antagonist creams.
Figure 4 Absence of inflammatory changes induced by PPAR β/δ antagonists in skin after topical application. […] Mice were sacrificed 1 h after the last ointment application and skin tissue processed for H&E based histology and mass spectrometry, as described in Methods. Data shown represent average ± s.d. of n = 3 mice per data point (left) treated with GSK (blue columns) or compound 3 h (red). Representative histology sections of all treated mice are shown on right. […] Horizontal bar represents 5 µm.
Mice were sacrificed, skin samples obtained and processed for H&E based histology as described. All samples were photographed at 200× magnification. Epidermal thickness was measured for all slides by a blinded observer at perpendicular angle to the basement membrane. The absence of variable planes of tissue sectioning as a confounder for apparent epidermal thickness was ruled out by verifying visible perpendicular insertion of hair follicles into the epidermis. For each sample, two measurements were taken in two separately photographed non-adjacent sections of the H&E stained skin sample.

[10] = parameters: method as in PMID 17975020; details: cited from earlier work
[11] = system: PPAR β/δ mediated psoriasis-like skin disease; assay: Prevention of epidermal hyperplasia, agonist GW501516 and antagonist both topical; assay type: in vivo, PPAR β/δ transgenic mice; details: antagonist ointment once per day, GW501516 0.1% ointment five times per week, 20 days
Procedure: as §5

psoriasis (PASI scores) = system: psoriasis (PASI scores); parameters: method as in PMID 15479756; details: systemic administration; cited from earlier work

## O=C(NCCS(=O)(=O)c1ccc(C(F)(F)F)cn1)c1ccc(Cl)cc1 [GSK3787]
[1]; C57Bl/6j, mouse, whole blood, topical, healthy mice after 20 days of twice-daily treatment, n = 3
  concentration at 20 days: 50.2 ± 25.7 nM
[2]; 16 h after the final application
  tissue level of unmodified drug in lesional skin: 240 ± 116 nmol/g of tissue
[2]; PPAR β/δ transgenic, mouse, whole blood, topical, inflamed skin, 16 h after last cream application, read-out: concentration in blood at the end of the experiment
  concentration at 16 h: 445 ± 429 nM
[3]; twice-daily versus three times weekly application (fig. 8b)
  expression of PPAR β/δ target genes LCE3f, IL1-beta, and HBEGF: suppression
[4]; H&E of treated area and its edge (figure S2)
  range of therapeutic activity: efficacy was limited to the area of cream application
[4]; even when applied only 3× per week (fig. 7b)
  reducing the amount of dermal infiltrate: as effective as GSK0660
[4]; even when applied only 3× per week, comparator twice daily (fig. 7a)
  preventing epidermal hyperplasia: as effective as GSK0660
PPARβ/δ [5]
  mode of receptor inactivation: irreversibly inactivates the receptor by forming a covalent bond
  IC50: 0.0067 µM
PPARβ/δ [6]
  EC50: 0.1 µM
Other PPAR isoforms
  Activity on other PPAR isoforms: Active on PPARγ at 1 μM

## Cc1cc(SCc2sc(-c3ccc(C(F)(F)F)cc3)nc2C)ccc1OCC(=O)O [GW501516]
[1]; 1 h post application, ointment concentrated 10-fold less (0.1%)
  systemic absorption relative to the antagonists: 100 fold
[1]; 1 h post topical application, 0.1% ointment
  peak serum concentration: 400 nM

## CN(CCOc1ccc(CC2SC(=O)NC2=O)cc1)c1ccccn1 (centres unmarked) [rosiglitazone]
psoriasis
  effect of topical application on psoriasis: showed no effect
PPAR β/δ
  activation of PPAR β/δ: can also activate PPAR β/δ

## COC(=O)c1sccc1S(=O)(=O)Nc1ccc(Nc2ccccc2)cc1OC [GSK0660]
[7]
  drug concentration up to which the optimised ointment formulation is devoid of drug crystals: up to 2 % (w/w)
[8]
  stability on storage (colour change): visible colour change from yellow to green
[1]
  total amount of detectable compound in blood as fraction of total drug applied: less than 0.01%
[1]; blood measured for 24 h after drug application
  drug accumulation in blood: no evidence of drug accumulation
[1]; over 24 h after drug application (figure 2b)
  total drug detectable in blood as fraction of total drug applied: less than 0.01%
[9]; C57Bl/6j, mouse, topical, 42 mg ointment applied to dorsal skin (figure 3)
  half-life: ~1.5 h
[9]
  local concentration in skin at steady state: high local concentrations
Shaved dorsal skin; one week, H&E
  apoptotic epidermal keratinocytes: apoptotic looking cells
Shaved dorsal skin; one week
  number of dermal nuclei per high power field: unchanged as compared to vehicle-only treated skin
Shaved dorsal skin; H&E
  epidermal hyperplasia induced by antagonist: neither antagonist produced notable epidermal hyperplasia
[2]; PPAR β/δ transgenic, mouse, skin, topical, after 20 days of treatment, read-out: concentration in skin tissue
  concentration at 12 h: 48 ± 18 ng/g
[2]; PPAR β/δ transgenic, mouse, whole blood, topical, after 20 days, threshold of detection, read-out: concentration in blood
  concentration at 12 h: < 25 nM
[3]; qPCR, oral GW501516, ointment twice daily three weeks
  reversal of IL1b expression: only observed using the ointment containing GSK0660
Other PPAR isoforms
  Activity on other PPAR isoforms: Not active at 10 μM
[10]
  bioavailability upon systemic administration: lack of bioavailability upon systemic administration

## CCCCCCCCCCCCCCSCC(=O)O [tetradecylthioacetic acid (TTA), tetradecylthioacetic acid]
psoriasis
  effect of topical application on psoriasis: showed no effect

## CCCCOc1ccc(-c2ccc(C(=O)O)cc2C)cc1CNC(=O)c1ccc(C(F)(F)F)cc1F [compound 3 h]
[7]
  drug concentration up to which the optimised ointment formulation is devoid of drug crystals: up to 2 % (w/w)
[1]; 1 h after topical application of ointment
  peak systemic concentration compared with reported EC50/IC50: slightly above the in vitro determined EC50 value
[1]
  total amount of detectable compound in blood as fraction of total drug applied: less than 0.01%
[9]
  local concentration in skin at steady state: high local concentrations
Shaved dorsal skin; one week
  number of dermal nuclei per high power field: unchanged as compared to vehicle-only treated skin
Shaved dorsal skin; H&E
  epidermal hyperplasia induced by antagonist: neither antagonist produced notable epidermal hyperplasia
[11]
  psoriasis-like epidermal hyperplasia induced by GW501516: significantly attenuated
PPARβ/δ [5]
  IC50: 0.01 µM
PPARβ/δ [5]; low reported Ki
  Ki: 0.011 µM
PPARβ/δ [6]
  EC50: 0.011 µM
Other PPAR isoforms; listed as Compound 3 h
  Activity on other PPAR isoforms: lack of activity on other PPAR isoforms
Other PPAR isoforms; listed as Compound 3h
  Activity on other PPAR isoforms: Not active at 1 μM

## CCc1ccc(CCOc2ccc(CC3SC(=O)NC3=O)cc2)nc1 (centres unmarked) [pioglitazone]
Psoriasis (PASI scores)
  effect on PASI scores: no marked reduction of PASI scores
